# Test results taken from patent publication US7265087B1, “Exendin improves β-cell response in subjects with impaired glucose tolerance” (priority 1998, dated 2007).
# Where “and” joins values, the source holds several entries; their conditions need not be identical. Equal values may be shown once. No end group written: not given here.
# What was measured:
# [1] = system: subjects with impaired glucose tolerance (IGT); test: 12 hour oscillatory glucose infusion with constant GLP-1 infusion, subjects with IGT; type: in vivo, human; set-up: Mean glucose 12 hour GLP-1 / Mean ISR 12 hour GLP-1: unit not given beside the values
# Procedure: (§1) The studies described herein were performed in 10 subjects who were divided into two groups on the basis of their plasma glucose response to an oral glucose tolerance test using the criteria of the World Health Organization to define the degree of glucose tolerance. Five subjects had IGT, and five subjects had NIDDM. The gender, age, body mass index (BMI), basal levels of fasting glucose, 2 hour glucose, fasting insulin, and HBA1c for each subject are presented in Table 2. Diabetic subjects were older than those with IGT, but the groups were matched for by BMI. Mean fasting glucose levels and glycosylated hemoglobin concentrations were lower in the IGT group compared to subjects with NIDDM.
# (§2) The coefficient of variation of this method was <2%. […] The average intraassay coefficient of variation was 5%. […] Diabetes 27, Suppl 1: 170-177, 1978.
# (§3) All results are expressed as mean±SEM. Data analysis was performed using the Statistical Analysis System (SAS Version 6 Edition, for Personal Computers, SAS Institute, Inc., Cary, N.C.). The significance of differences within the individual induced by GLP-1 infusion was determined using paired t tests. Differences were considered to be significant if P<0.05.
# (§4) Standard kinetic parameters for C-peptide clearance adjusted for age, sex and body surface area were utilized, Van Cauter E, Mestrez, F, Sturis J, Polonsky K S. Estimation of insulin secretion rates from C-peptide levels: comparison of individual and standard kinetic parameters for C-peptide clearance. Diabetes 41:368-377, 1992. These parameters were used to derive, in each 15 minute interval between blood sampling, the ISR from the plasma C-peptide concentrations by deconvolution as previously described.
# (§5) Each subject was studied on three separate occasions. All studies were performed after a 12-hour overnight fast beginning at 0700 unless otherwise stated with subjects in the recumbent position. An intravenous catheter was placed in each forearm, one for blood sampling and one for administration of glucose and GLP-1 as needed. In all experiments, the arm containing the sampling catheter was maintained in a heating blanket to ensure arterialization of the venous sample. In the following examples, the GLP-1 was administered to the subjects in the GLP-1 (7-36) amide form.
# (§6) In order to determine whether the β-cells were able to detect and respond to oscillations of glucose, glucose was infused in an oscillatory pattern with a small volume of saline for 12 hours.
# (§7) To determine whether insulin secretion was entrained by glucose in individual subjects, the temporal profiles of insulin secretion were analyzed by spectral analysis. Spectral power analysis was used to evaluate the presence of tight coupling between oscillations in glucose and oscillations in ISR. This method evaluated the regularity of insulin secretory oscillations at a predetermined frequency. Spectral peaks correspond to the dominant periodicity and height of the peaks correspond to spectral power. Each spectrum was normalized assuming the total variance of each series to be 100% and was expressed as the normalized spectral power.
# subjects with NIDDM = test: 12 hour oscillatory glucose infusion with constant GLP-1 infusion, subjects with NIDDM; type: in vivo, human; set-up: Mean glucose 12 hour GLP-1: unit not given beside the values
# Procedure: as §1, §2, §3, §4
# The diabetic subjects were treated with diet alone with the exception of one subject D07, who was previously treated with an oral hypoglycemic agent that was discontinued 4 weeks prior to the study. None of the diabetic patients had ever received insulin. All subjects were placed on a weight maintenance diet containing at least 200 g of carbohydrate per day for two weeks before the study.
# as §5, §6, §7
# pancreas = conditions: background statement; cited from earlier work
molecule,measurement,setting,value
"CC[C@H](C)[C@H](NC(=O)[C@H](Cc1ccccc1)NC(=O)[C@H](CCC(=O)O)NC(=O)[C@H](CCCCN)NC(=O)[C@H](C)NC(=O)[C@H](C)NC(=O)[C@H](CCC(N)=O)NC(=O)CNC(=O)[C@H](CCC(=O)O)NC(=O)[C@H](CC(C)C)NC(=O)[C@H](Cc1ccc(O)cc1)NC(=O)[C@H](CO)NC(=O)[C@H](CO)NC(=O)[C@@H](NC(=O)[C@H](CC(=O)O)NC(=O)[C@H](CO)NC(=O)[C@@H](NC(=O)[C@H](Cc1ccccc1)NC(=O)[C@@H](NC(=O)CNC(=O)[C@H](CCC(=O)O)NC(=O)[C@H](C)NC(=O)[C@@H](N)Cc1c[nH]cn1)[C@@H](C)O)[C@@H](C)O)C(C)C)C(=O)N[C@@H](C)C(=O)N[C@@H](Cc1c[nH]c2ccccc12)C(=O)N[C@@H](CC(C)C)C(=O)N[C@H](C(=O)N[C@@H](CCCCN)C(=O)NCC(=O)N[C@@H](CCCNC(=N)N)C(N)=O)C(C)C [GLP-1, GLP-1 (7-36) amide]",Mean ISR 12 hour GLP-1,"[1]; IGT group, Mean ± SEM, n=5, GLP-1 0.4 pmol/kg/min for 12 hours",654.2 ± 152.1
same,Mean glucose 12 hour GLP-1,"[1]; IGT group, Mean ± SEM, n=5, GLP-1 0.4 pmol/kg/min for 12 hours, P<0.05 vs saline",6.35 ± 0.08
same,mean ISRs during GLP-1 infusion compared to saline infusion,[1]; IGT subjects,not significantly different
same,average drop of mean glucose levels during GLP-1 infusion compared to saline,"[1]; IGT subjects, P<0.02, mean±SEM",2.4 ± 0.6 mM
same,mean normalized spectral power for glucose during GLP-1 infusion,"[1]; IGT subjects, P=0.19 vs saline, mean±SEM",13.2±1.6
same,increase of mean insulin levels during GLP-1 infusion compared to saline,"[1]; IGT subjects, P=0.32, mean±SEM",102 ± 90 pmol/L
same,Mean glucagon levels during GLP-1 infusion,"[1]; IGT subjects, P=0.94 vs saline, mean±SEM",39.3 ± 5.4 pg/mL
same,Spectral power for ISR during GLP-1 infusion,"[1]; IGT subjects, normalized, P<0.006 vs saline, mean±SEM",8.9±1.7
same,periodicity of the dominant spectral peak in ISR during GLP-1 infusion,"[1]; individual IGT subject, period of exogenous glucose infusion 144 minutes",144 min
same,Mean ISR 12 hour GLP-1,"[1]; individual IGT subjects D01-D05, GLP-1 0.4 pmol/kg/min for 12 hours with oscillatory glucose infusion",465.9 and 1042.7 and 365.9 and 1005.8 and 390.9
same,Mean glucose 12 hour GLP-1,"[1]; individual IGT subjects D01-D05, GLP-1 0.4 pmol/kg/min i.v. for 12 hours with oscillatory glucose infusion",6.06 and 6.46 and 6.36 and 6.37 and 6.48
same,"Spectral power during GLP-1 infusion, individual subject","[1]; one subject with IGT (D02, FIGS. 6A and 6B), 0.6 during saline",8.9
same,pattern of insulin secretory responses to glucose during GLP-1 infusion,"[1]; representative subjects with IGT, D01 and D02 (FIGS. 3B and 3D)",improved
same,Mean ISR 12 hour GLP-1,"subjects with NIDDM; NIDDM group, Mean ± SEM, n=5, GLP-1 0.4 pmol/kg/min for 12 hours",508 ± 53.4
same,Mean glucose 12 hour GLP-1,"subjects with NIDDM; NIDDM group, Mean ± SEM, n=5, GLP-1 0.4 pmol/kg/min for 12 hours, P<0.05 vs saline",9.40 ± 0.9
same,mean ISRs during GLP-1 infusion compared to saline infusion,subjects with NIDDM; NIDDM subjects,not significantly different
same,mean normalized spectral power for glucose during GLP-1 infusion,"subjects with NIDDM; NIDDM subjects, P=0.18 vs saline, mean±SEM",9.8±0.7
same,Mean glucagon levels during GLP-1 infusion,"subjects with NIDDM; NIDDM subjects, P=0.4 vs saline, mean±SEM",46.4 ± 3.2 pg/mL
same,increase of mean insulin levels during GLP-1 infusion compared to saline,"subjects with NIDDM; NIDDM subjects, P=0.56, mean±SEM",7 ± 12 pmol/L
same,Spectral power for ISR during GLP-1 infusion,"subjects with NIDDM; NIDDM subjects, normalized, P=0.6 vs saline, mean±SEM",1.5±0.8
same,average drop of mean glucose levels during GLP-1 infusion compared to saline,"subjects with NIDDM; diabetics (NIDDM), P<0.0005, mean±SEM",5.2 ± 0.5 mM
same,Mean ISR 12 hour GLP-1,"subjects with NIDDM; individual NIDDM subjects D06-D10, GLP-1 0.4 pmol/kg/min for 12 hours with oscillatory glucose infusion",477.7 and 715.4 and 487.7 and 412.5 and 448.9
same,Mean glucose 12 hour GLP-1,"subjects with NIDDM; individual NIDDM subjects D06-D10, GLP-1 0.4 pmol/kg/min i.v. for 12 hours with oscillatory glucose infusion",11.53 and 10.51 and 6.24 and 8.84 and 9.90
same,"Spectral power during GLP-1 infusion, individual subject","subjects with NIDDM; one subject with NIDDM (D07, FIGS. 6C and 6D), 0.28 during saline",1.51 and 1.5
same,pattern of insulin secretory responses to glucose during GLP-1 infusion,"subjects with NIDDM; two subjects with NIDDM, D07 and D09 (FIGS. 4B and 4D)",not improved
SEQ ID NO:5 (EGTFTSDVSSYLEGQAAKEFIAWLVKGRG; mammalian),production or release of insulin from the pancreas,pancreas,do not stimulate the production or release of insulin from the pancreas
SEQ ID NO:6 (EGTFTSDVSSYLEGQAAKEFIAWLVKGR-NH2),production or release of insulin from the pancreas,pancreas,do not stimulate the production or release of insulin from the pancreas
